One data set relates to hCoV-229E-luc. Put plainly: organism not typed. The data set is classed as cell-based, alphacoronavirus HCoV-229E.
In another data set the test system is Mucor hiemalis DSM-2656. Put plainly: Antimicrobial activity (MIC). The note with it: DSM2656, read-out: MIC Mucor hiemalis DSM-2656.
Data set [1] in a line: in vitro. The note with it: human.
For data set [2], the system named is Candida. albicans DSM-1665. Kind of data set: Antimicrobial activity (MIC). The note with it: DSM1665, read-out: MIC Candida. albicans DSM-1665.
The next data set deals with ZIKV-H/PF/2013. Kind of data set: microbe, parasite or virus in culture. The data set is classed as cell-based. The note with it: Zika virus, Huh-7, 48 h, read-out: IC50 against ZIKV-H/PF/2013.
The test system of data set [3] is Micrococcus luteus DSM-1790. Kind of data set: Antimicrobial activity (MIC). The note with it: DSM1790, read-out: MIC Micrococcus luteus DSM-1790.
Another data set deals with Bacillus subtilis DSM-10. Kind of data set: Antimicrobial activity (MIC). Conditions: DSM10, read-out: MIC Bacillus subtilis DSM-10.
Data set [4] is described as follows: Cell viability (CellTiter Glo) of Huh-7 cells in parallel to ZIKV antiviral test. Conditions: human.
In data set [5] the test system is DENV-R2A. Kind of data set: microbe, parasite or virus in culture. Conditions: Dengue virus, Huh-7, 48 h, read-out: IC50 against DENV-R2A.
Data set [6] concerns DENV-R2A. The note with it: CC50 Huh-7 versus IC50 DENV-R2A.
Data set [7] in a line: in vitro. The note with it: human. This is another data set of the same source.
In data set [8] the test system is Candida albicans, Mucor hiemalis, Bacillus subtilis and Micrococcus luteus. Put plainly: Antimicrobial test panel (whole-panel statements). The note with it: in the tested concentrations.
Method: All thiamyxins except congener A, which was only produced in low amounts, were tested against two
Gram-positive and two fungal pathogens.
Where [9] appears, read: Huh-7.5/Fluc cells, 48 h, 33 °C, Renilla luciferase, read-out: IC50 against hCoV-229E-luc.
The mark [10] stands for this setting: read-out: IC50 against hCoV-229E-luc, Huh-7.5/Fluc cells, 48 h, 33 °C, Renilla luciferase.

Values after ≈ are worked out from the molar mass of the structure shown. Values joined by “and” are separate entries in the source; they are usually repeats but may differ in a detail not shown here. Equal entries are not always repeated. Where two headings read alike, the source gives them in different places. A value given as a limit tells only on which side of the number the result lay.

Turning to `COC(=O)/C=C(\OC)[C@H](C)[C@H](/C=C/c1csc(CCCCCCCC(C)C)n1)OC` [Fulvuthiacene A], in the data set with Huh-7.5 Fluc infected, the CC50 was > 10 µM. The IC50 in the data set with hCoV-229E-luc (setting [9]) stood at 1.95 µM.
The MIC is the lowest concentration that inhibits growth of the organism. Consider `C=C1NC(=O)C2(C)CSC(=N2)c2csc(n2)C2(C)CSC(=N2)C(C(C)CC)NC(=O)C(C)NC(=O)C(=CC(C)C)COC(=O)c2csc(n2)C(C(C)C)N(C)C(=O)C(COC)NC1=O` (stereo not drawn) [Thiamyxin B], for which the CC50 with Huh-7.5 Fluc infected (human) was > 10 µM. The MIC in the data set on Mucor hiemalis DSM-2656 was > 64 mg/L; in data set [2], 64 mg/L (≈ 66.8 µM); in [3], > 64 mg/L; with Bacillus subtilis DSM-10, > 64 mg/L. Further, the CC50 at 48 h (in “in vitro [1]”; in [4]) was 2.25 µM each time. The IC50 stood at 1.07 µM with ZIKV-H/PF/2013, 0.56 µM in the data set on DENV-R2A [5] and 2.39 µM in the data set with hCoV-229E-luc (setting [10]). In the data set on DENV-R2A [6], the “difference between IC50 and CC50, DENV-R2A assay” value is listed as “fourfold”.
As to `NC(=O)c1ncn([C@@H]2O[C@H](CO)[C@@H](O)[C@H]2O)n1` [ribavirin, reference compound], the IC50 was found to be 2.5 µM in the data set on ZIKV-H/PF/2013 and 2.3 µM in the data set on DENV-R2A [5].
Regarding `C=C1NC(=O)C2(C)CSC(=N2)c2csc(n2)C2(C)CSC(=N2)C(C(C)CC)NC(=O)C(C)NC(=O)C(=CC(C)C)COC(=O)c2csc(n2)C(C(C)C)N(C)C(=O)C(COC)NC1=O` (stereo not drawn) [Thiamyxin A], the CC50 in “in vitro [7]” is > 10 µM. The IC50 in the data set with hCoV-229E-luc (Huh7.5, 48 h, read-out: IC50 against hCoV-229E-luc, Huh-7.5/Fluc cells, 48 h, 33 °C, Renilla luciferase) came to 2.49 µM; in the data set with hCoV-229E-luc (setting [10]), 2.47 µM.
Consider `C=C(NC(=O)C1(C)CSC(c2csc(C3(C)CSC(C(NC(=O)C(C)NC(=O)C(=CC(C)C)CO)C(C)CC)=N3)n2)=N1)C(=O)NC(COC)C(=O)N(C)C(c1nc(C(=O)O)cs1)C(C)C` (stereo not drawn) [Thiamyxin C], for which the MIC in the data set on Mucor hiemalis DSM-2656 was 64 mg/L (≈ 65.6 µM); in data set [2], > 64 mg/L; in data set [3] it was 32 mg/L (≈ 32.8 µM); with Bacillus subtilis DSM-10, 64 mg/L (≈ 65.6 µM). Besides, in “in vitro [7]”, the CC50 was > 10 µM. In addition, the IC50 is > 15 µM with ZIKV-H/PF/2013; 14.6 µM in the data set with DENV-R2A [5]; > 10 µM with hCoV-229E-luc (setting [10]); 20.5 µM with hCoV-229E-luc (read-out: IC50 against hCoV-229E-luc, Huh-7.5/Fluc cells, 48 h, 33 °C, Renilla luciferase, listed as KH_Mx152_976); ~20 µM and ~20.5 µM with hCoV-229E-luc (read-out: IC50 against hCoV-229E-luc, Huh-7.5/Fluc cells, 48 h, 33 °C, Renilla luciferase, listed as thiamyxin C). Also, the CC50 at 48 h in data set [4] was > 50 µM.
Consider `COC(=O)/C=C(\OC)[C@H](C)[C@H](/C=C/c1csc(CCCCCC(C)C)n1)OC` [Fulvuthiacene B], for which the CC50 in the data set with Huh-7.5 Fluc infected is > 10 µM. Besides, the IC50 with hCoV-229E-luc (setting [9]) turned out to be 0.97 µM.
The corresponding values for Chondrosarid B are > 10 µM and 4.19 µM.
`C=C(NC(=O)C1(C)CSC(c2csc(C3(C)CSC(C(NC(=O)C(C)NC(=O)C(=CC(C)C)CO)C(C)CC)=N3)n2)=N1)C(=O)NC(COC)C(=O)N(C)C(c1nc(C(=O)OCC(O)CO)cs1)C(C)C` (stereo not drawn) [Thiamyxin D]: the MIC (in the data set with Mucor hiemalis DSM-2656; in data set [2]; in data set [3]; with Bacillus subtilis DSM-10) was > 64 mg/L in each case. In addition, the CC50 in the data set “in vitro [7]” was > 10 µM. Also, the “effect on the antimicrobial test panel in words” value in [8] is “did not show effects”. Further, the IC50 in the data set on hCoV-229E-luc (setting [10]) is > 10 µM; with hCoV-229E-luc (read-out: IC50 against hCoV-229E-luc, Huh-7.5/Fluc cells, 48 h, 33 °C, Renilla luciferase, listed as KH_Mx152_1050), 23.1 µM; in the data set with hCoV-229E-luc (read-out: IC50 against hCoV-229E-luc, Huh-7.5/Fluc cells, 48 h, 33 °C, Renilla luciferase, listed as thiamyxin D), ~20 µM and ~23.1 µM.

The values above are taken from PMC10100342, “Thiamyxins: Structure and Biosynthesis of Myxobacterial RNA‐Virus Inhibitors” (Angewandte Chemie (International Ed. in English), 2022).
